Data reported in ChEMBL document CHEMBL4813945, “Discovery and development of novel pyrimidine and pyrazolo/thieno-fused pyrimidine derivatives as potent and orally active inducible nitric oxide synthase dimerization inhibitor with efficacy for arthritis” (Eur J Med Chem, 2021).
Calls of active or inactive are those of the source. The calls are words filed in the database; no cut-off is given here.

Experiments:
[1] = Half life in Sprague-Dawley rat at 1 mg/kg, iv measured after 0.08 to 24 hrs by LC-MS/MS analysis; format: ADME, organism-based; conditions: in vivo, time 0.08-24 hrs
[2] = Metabolic stability in rat hepatocytes assessed as intrinsic clearance incubated up to 120 mins measured per million cells by LC-MS/MS analysis; format: ADME, cell-based, Hepatocyte; conditions: read-out: CLH
[3] = Subacute toxicity in rat assessed as anorexia at 100 to 500 mg/kg, IG administered every other day for 14 days and measured every 2 days; format: organism-based; conditions: in vivo, po, 336 h, dose 100-500 mg/kg, time 14 day
Rattus norvegicus [4] = experiment: Antiinflammatory activity in complete freund's adjuvant-induced IG dosed male Sprague-Dawley rat model of arthritis assessed as decrease in IL-1beta level in serum after 4 weeks by ELISA; format: functional, organism-based; conditions: dose 40-80 mg/kg
[5] = Subacute toxicity in rat assessed as fur wrinkles at 100 to 500 mg/kg, IG administered every other day for 14 days and measured every 2 days; format: organism-based; conditions: in vivo, po, 336 h, dose 100-500 mg/kg, time 14 day
RAW264.7 [6] = experiment: Cytotoxicity against mouse RAW264.7 cells at 20 uM measured after 24 hrs; format: cell-based; conditions: raw264.7, 24 h
Cytochrome P450 1A2 = target: T1, Cytochrome P450 1A2 (Homo sapiens, UniProt P05177); experiment: Inhibition of CYP1A2 in human liver microsomes using Phenacetin as substrate measured after 20 mins by LC-MS/MS analysis; format: ADME
T1 sequence (P05177 whole entry): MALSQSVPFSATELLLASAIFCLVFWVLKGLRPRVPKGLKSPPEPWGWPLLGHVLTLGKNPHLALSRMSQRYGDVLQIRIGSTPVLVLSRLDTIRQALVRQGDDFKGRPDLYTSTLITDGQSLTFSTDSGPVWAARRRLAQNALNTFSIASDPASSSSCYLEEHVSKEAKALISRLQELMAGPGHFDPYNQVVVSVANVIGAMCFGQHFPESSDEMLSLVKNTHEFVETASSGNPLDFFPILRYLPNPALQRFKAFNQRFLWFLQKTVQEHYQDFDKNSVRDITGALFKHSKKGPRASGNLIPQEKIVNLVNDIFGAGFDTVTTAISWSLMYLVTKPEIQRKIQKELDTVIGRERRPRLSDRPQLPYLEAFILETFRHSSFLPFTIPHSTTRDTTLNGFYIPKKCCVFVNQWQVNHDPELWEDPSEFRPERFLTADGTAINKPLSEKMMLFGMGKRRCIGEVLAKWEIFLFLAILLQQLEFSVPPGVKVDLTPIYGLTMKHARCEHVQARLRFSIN

Rattus norvegicus [7] = experiment: Antiinflammatory activity in complete freund's adjuvant-induced IG dosed male Sprague-Dawley rat model of arthritis assessed as decrease in TNF-alpha level in serum after 4 weeks by ELISA; format: functional, organism-based; conditions: dose 40-80 mg/kg
L02 = experiment: Cytotoxicity against human L02 cells assessed as cell viability by MTT assay; format: cell-based
[8] = Subacute toxicity in rat assessed as spleen damage at 100 to 500 mg/kg, IG administered every other day for 14 days and measured every 2 days by H and E staining; format: organism-based; conditions: in vivo, po, 336 h, dose 100-500 mg/kg, time 14 day
Rattus norvegicus [9] = experiment: Antiinflammatory activity in complete freund's adjuvant-induced male Sprague-Dawley rat model of arthritis assessed as reduction in synovial hyperplasia at 40 to 80 mg/kg, IG after 2 weeks by Safranin O staining based histopathological analysis; format: functional, organism-based; conditions: dose 40-80 mg/kg
[10] = Metabolic stability in rat hepatocytes assessed as half life measured upto 120 mins by LC-MS/MS analysis; format: ADME, cell-based, Hepatocyte
[11] = Acute toxicity in rat assessed as weight loss at 2000 mg/kg, IG administered as single dose; format: organism-based; conditions: in vivo, po
[12] = Acute toxicity in rat assessed as drowsiness at 2000 mg/kg, IG administered as single dose; format: organism-based; conditions: in vivo, po
RAW264.7 [13] = experiment: Inhibition of LPS-induced iNOS protein expression in mouse RAW264.7 cells at 0.5 to 2 uM preincubated for 1 hrs followed by LPS-stimulation and measured after 24 hrs by Western blot analysis; format: functional, cell-based; conditions: dose 0.5-2 µM, time 25.0 hrs
[14] = Half life in Sprague-Dawley rat at 10 mg/kg, po measured after 0.25 to 24 hrs by LC-MS/MS analysis; format: ADME, organism-based; conditions: in vivo, time 0.25-24 hrs
RAW264.7 [15] = experiment: Cytotoxicity against mouse RAW 264.7 cells assessed as cell viability by MTT assay; format: cell-based
Rattus norvegicus [16] = experiment: Antiinflammatory activity in complete freund's adjuvant-induced male Sprague-Dawley rat model of arthritis assessed as reduction in synovial hyperplasia at 80 mg/kg, IG after 4 weeks by H and E staining based histopathological analysis; format: functional, organism-based
Rattus norvegicus [17] = experiment: Antiinflammatory activity in complete freund's adjuvant-induced IG dosed male Sprague-Dawley rat model of arthritis assessed as decrease in IL-6 level in serum after 4 weeks by ELISA; format: functional, organism-based; conditions: dose 40-80 mg/kg
[18] = Cmax in Sprague-Dawley rat at 1 mg/kg, iv measured after 0.08 to 24 hrs by LC-MS/MS analysis; format: ADME, organism-based; set-up: route intravenous, time upper 24 hrs, dose 1 mg/kg, time lower 0.08 hrs; conditions: in vivo
[19] = AUC (0 to infinity) in Sprague-Dawley rat at 1 mg/kg, iv measured by LC-MS analysis; format: ADME, organism-based; set-up: time infinity, route intravenous, dose 1 mg/kg; conditions: in vivo
[20] = Subacute toxicity in rat assessed as lung damage at 100 to 500 mg/kg, IG administered every other day for 14 days and measured every 2 days by H and E staining; format: organism-based; conditions: in vivo, po, 336 h, dose 100-500 mg/kg, time 14 day
[21] = Metabolic stability in human hepatocytes assessed as parent compound remaining after 120 mins by LC-MS/MS analysis; format: ADME, cell-based, Hepatocyte; conditions: read-out: Stabilty
[22] = Acute toxicity in rat assessed as mortality at 2000 mg/kg, IG administered as single dose; format: organism-based; conditions: in vivo, po
RAW264.7 [23] = experiment: Antiinflammatory activity against mouse RAW264.7 cells assessed as inhibition of LPS-induced NO production at 10 uM preincubated for 1 hrs followed by LPS stimulation and measured after 24 hrs by Griess assay relative to control; format: functional; conditions: time 25 hrs
[24] = Acute toxicity in rat assessed as fur wrinkles at 2000 mg/kg, IG administered as single dose; format: organism-based; conditions: in vivo, po
[25] = Acute toxicity in rat assessed as liver necrosis at 200 to 500 mg/kg measured after 7 days by H and E staining based assay; format: organism-based; conditions: in vivo, 168 h, dose 200-500 mg/kg, time 7 day
Cytochrome P450 2C9 = Cytochrome P450 2C9 (Homo sapiens, UniProt P11712); experiment: Inhibition of CYP2C9 in human liver microsomes using Diclofenac as substrate measured after 20 mins by LC-MS/MS analysis; format: ADME
[26] = Acute toxicity in IG dosed rat assessed as maximum tolerated dose; format: organism-based; conditions: in vivo, po
Rattus norvegicus [27] = species: Rattus norvegicus; experiment: Antiinflammatory activity against freund's adjuvant-induced male Sprague-Dawley rat model of arthritis assessed as decrease INOS expression at 40 to 80, IG after 4 weeks measured by staining based immunohistochemical analysis; format: functional, organism-based; conditions: dose 40-80 mg/kg
[28] = Metabolic stability in human hepatocytes assessed as clearance incubated up to 120 mins measured per million cells by LC-MS/MS analysis; format: ADME, cell-based, Hepatocyte; conditions: read-out: CLH
RAW264.7 [29] = experiment: Cytotoxicity against LPS-induced mouse RAW 264.7 cells assessed as cell viability measured by MTT assay; format: cell-based
[30] = Subacute toxicity in rat assessed as clonic convulsions at 100 to 500 mg/kg, IG administered every other day for 14 days and measured every 2 days; format: organism-based; conditions: in vivo, po, 336 h, dose 100-500 mg/kg, time 14 day

Cytochrome P450 2C9, sequence (P11712 whole entry): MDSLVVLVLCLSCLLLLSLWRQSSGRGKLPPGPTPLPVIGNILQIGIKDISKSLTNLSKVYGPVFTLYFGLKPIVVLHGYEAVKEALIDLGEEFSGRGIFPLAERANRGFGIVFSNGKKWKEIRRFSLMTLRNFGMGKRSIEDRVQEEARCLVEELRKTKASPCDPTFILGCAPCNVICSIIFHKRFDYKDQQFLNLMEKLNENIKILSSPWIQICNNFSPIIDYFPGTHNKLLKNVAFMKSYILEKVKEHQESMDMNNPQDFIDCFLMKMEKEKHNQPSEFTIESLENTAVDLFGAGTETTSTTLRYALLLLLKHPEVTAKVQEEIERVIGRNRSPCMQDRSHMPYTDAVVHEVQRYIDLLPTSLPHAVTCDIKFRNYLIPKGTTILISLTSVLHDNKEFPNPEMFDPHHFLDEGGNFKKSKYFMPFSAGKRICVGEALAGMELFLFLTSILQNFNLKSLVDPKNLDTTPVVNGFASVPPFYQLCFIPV

With COc1cc(/C=C/c2nc(NCc3ccc(C)cc3)c3sccc3n2)cc(OC)c1OC the half-life [1] was 6.21 h, the hepatocyte CLint [2] was 12.6 µL/min/1e6 cells and the Activity [3] was “Non-Toxic”. For the same molecule, the Activity (Rattus norvegicus [4]) was “Dose-Dependent Effect”, the Activity [5] was “Non-Toxic” and the Activity (RAW264.7 [6]) was “Non-Toxic”. The IC50 (Cytochrome P450 1A2) was 42.2 µM, the Activity (Rattus norvegicus [7]) was “Dose-Dependent Effect” and the IC50 (L02) was 2930 µM. The Activity [8] was “Non-Toxic”, the Activity (Rattus norvegicus [9]) was “Active” and the half-life [10] was 0.925 h. The Activity [11] was “Non-Toxic”, the Activity [12] was “Non-Toxic” and the inhibition (RAW264.7 [13]) was “inactive”. For the same molecule, the half-life [14] was 4.91 h, the IC50 (RAW264.7 [15]) was > 50 µM and the Activity (Rattus norvegicus [16]) was “Active”. The Activity (Rattus norvegicus [17]) was “Dose-Dependent Effect”, the Cmax [18] was 388 ng/mL and the AUC(0-inf) [19] was 401 ng·h/mL. For the same molecule, the Activity [20] was “Non-Toxic”, the remaining at 2 h [21] was 77.5% and the Activity [22] was “Non-Toxic”. The inhibition at 10 µM (RAW264.7 [23]) was 98.3%, the Activity [24] was “Non-Toxic” and the Activity [25] was “Toxic”. For the same molecule, the IC50 (Cytochrome P450 2C9) was 8.91 µM, the MTD [26] was 2000 mg/kg and the Activity (Rattus norvegicus [27]) was “Active”. The hepatocyte CLint [28] was 2.1 µL/min/1e6 cells, the IC50 (RAW264.7 [29]) was > 50 µM and the Activity [30] was “Non-Toxic”.
